The source of these data is patent US20190375708A1 (VenatoRx Pharmaceuticals, Inc., priority 2018, published 2019).

The subject of series [1] is HBV replication in HepAD38 cells. Nature of the series: Anti-HBV replication assay in HepAD38 cells (QPCR of extracellular HBV DNA). The series is classed as cell-based, HBV (genotype D, serotype ayw). The note with it: Hepatitis B virus, 168 h, 7 days incubation, extracellular HBV DNA by QPCR, read-out: Anti-HBV EC50. As for the experimental part:
The anti-HBV activity of the Capsid Assembly Modulators (CAMs) was evaluated in a cell based assay utilizing the human hepatoma cell line HepAD38 (Ladner, S K., et al., 1998). HepAD38 cells were derived from the parental line, HepG2, that were stably transfected with a construct containing an HBV genome (genotype D, serotype ayw) under the control of a tetracycline repressible CMV promoter. Upon removal of tetracycline, viral pre-genomic RNA (pgRNA) and mRNAs are expressed and infectious viral particles are assembled and secreted into the culture medium providing a reliable, robust system to measure multiple steps of the HBV life cycle. Disruption of capsid formation results in reduced levels of DNA-containing virus particles that are released into the culture supernatant. To quantify the effect of CAMs on HBV replication, we developed a sensitive QPCR-based assay that measures extracellular HBV DNA levels upon treatment of HepAD38 cells with various concentrations of test compounds.
HepAD38 cells were maintained in DMEM/F12 medium containing 10% FBS, 400 μg/mL G418 and 0.3 μg/mL tetracycline (tet+ media) to maintain repression of HBV replication. To evaluate each compound, HepAD38 cells were seeded into 24-well collagen coated culture plates (Corning BioCoat) at a density of 200,000 cells per well in 1 mL of medium without tetracycline (tet-media) and allowed to adhere overnight at 37° C., 5% CO2 in a humidified incubator. The following day, media was refreshed and a dose range of each compound was prepared by performing 1 log10 serial dilutions in 100% DMSO at 200× the desired assay concentration. Dilutions were then added to the cells resulting in a final dose range of 1 μM to 10 μM and the plates were returned to the incubator. Following 7 days of incubation, culture supernatants were harvested and HBV DNA levels were evaluated by QPCR and compared to the vehicle treated control wells (i.e. DMSO alone).
To quantify HBV DNA levels, cell culture supernatants were diluted 1:10 in sterile, nuclease-free water (Gibco). The diluted supernatants were subsequently added to a PCR master mix containing 1× Roche Light Cycler Master Mix, 0.5 μM forward primer, 0.5 μM reverse primer (Fwd: 5′-[…] (SEQ ID NO 1); Rev: 5′-[…] (SEQ ID NO 2)), 0.2 μM Roche Universal Probe Library Probe 25. The volume was brought to 20 μL with nuclease-free water and amplification of the HBV target sequence was performed using a Roche LightCycler 480 QPCR instrument. PCR extended out to 45 cycles with each cycle consisting of a denaturation step at 95° C. for 10 sec., followed by an annealing step at 60° C. for 10 sec. and a brief extension step at 72° C. for 1 sec.
Extracellular HBV DNA levels, expressed in copies/mL, were determined by comparison to a standard curve (10^2-10^9 copies/mL) using the Roche LightCycler analysis software. These values were subsequently converted to percent inhibition of HBV replication by dividing the HBV DNA levels in the experimental samples with those obtained from the vehicle control (˜1-2×10^5 copies/mL). Potency, expressed as an EC50 (the effective concentration required to inhibit 50% of HBV replication), was calculated from the dose-response curve using a 4-parameter non-linear regression analysis (GraphPad Prism). The nucleoside analog inhibitor entecavir was used as a positive control to validate each assay run. The EC50 value of entecavir in the HepAD38 assay was 0.5 nM, as previously reported in the literature.

Series [2] in a line: In vitro cytotoxicity assay (MTT cell viability) in HepG2 cells. The note with it: human. In kind it is cell-based, human. As for the experimental part: To evaluate antiviral selectivity, the cytotoxic activity of each compound was determined using a standard cell viability assay performed on the parental HepG2 cell line. Cell viability was determined by measuring the conversion of 3-(4,5-dimethylthiazol-2-yl)-2,5-diphenyltetrazolium bromide (MTT) to the insoluble formazan salt crystal that occurs in live cells. Briefly, HepG2 cells were seeded in 96-well plates at a density of 20,000 cells per well in EMEM+10% FBS (complete growth medium) and allowed to adhere overnight in a 37° C., 5% CO2 humidified incubator. The next day, test agents were prepared by performing 8 half-log10 serial dilutions in 100% DMSO at 200× the final desired concentration in the assay. Compounds were tested over a range of concentrations from 30 μM to 1.0 nM in the assay. HepG2 cells were incubated in the presence of various concentrations of CAMs for 7 days in a 37° C., 5% CO2 humidified incubator. At the completion of the 7-day incubation period, MTT reagent was added to each well and the mixture was incubated for an additional 3-4 hours. At the completion of the incubation period, all wells were aspirated to remove the culture medium. The formazan crystals were solubilized from the cell monolayers with 100% DMSO. Plates were briefly mixed on an orbital shaker and absorbance was measured at 492 nm using a Perkin-Elmer EnVision multi-label plate reader. All absorbance values were converted to a percentage of the signal obtained from the vehicle treated controls. Absorbance values at 492 nm are directly proportional to the number of viable cells present in the sample. A CC50 value (cytotoxic concentration that results in loss of 50% cell viability) was calculated from the dose-response curve by 4-parameter, non-linear regression analysis using the GraphPad Prism software. The positive control compound, staurosporine, reduced the viability of HepG2 cells in a dose-dependent manner (CC50=100 nM).

As a reminder, the EC50 is the concentration needed to bring the measured effect to its halfway point. In general, CC50 refers to the concentration that lowers cell viability or growth by half. A low value points to harm at low concentration. Turning to `Cc1cc(NC(=O)c2c(Cl)c(C(=O)C(=O)NC(C)(C)C)n3c2CCC3)ccc1F` [Example 539, 5-(2-(tert-butylamino)-2-oxoacetyl)-6-chloro-N-(4-fluoro-3-methylphenyl)-2,3-dihydro-1H-pyrrolizine-7-carboxamide], in series [1], the EC50 is less than 0.05 µM. This compound came in with a CC50 at 7 days in series [2] of 5 to 30 µM.

As to `Cc1c(C(=O)Nc2cccc(C(F)F)c2)c(C)n(C)c1C(=O)C(=O)N[C@H]1CC[C@H](O)CC1` [Example 697, N-(3-(difluoromethyl)phenyl)-5-(2-(((1r,4r)-4-hydroxycyclohexyl)amino)-2-oxoacetyl)-1,2,4-trimethyl-1H-pyrrole-3-carboxamide], the EC50 in series [1] was less than 0.05 µM. The same compound registered a half-maximal cytotoxic concentration (CC50) at 7 days in series [2] of more than 30 µM.

Turning to `CNC(=O)[C@H](NC(=O)C(=O)c1c(C)c(C(=O)Nc2ccc(F)c(C)c2)c(C)n1C)C(C)C` [Example 106, (R)-N-(4-fluoro-3-methylphenyl)-1,2,4-trimethyl-5-(2-((3-methyl-1-(methylamino)-1-oxobutan-2-yl)amino)-2-oxoacetyl)-1H-pyrrole-3-carboxamide], in series [1], the EC50 is less than 0.05 µM. In series [2], this compound registered a CC50 at 7 days of 0.5 to 4.99 µM.

For the compound `Cc1cc(NC(=O)c2c(C)c(C(=O)C(=O)NC3CC4(CC(O)C4)C3)n(C)c2C)ccc1F` (stereo not shown) [Example 598, N-(4-fluoro-3-methylphenyl)-5-(2-((6-hydroxyspiro[3.3]heptan-2-yl)amino)-2-oxoacetyl)-1,2,4-trimethyl-1H-pyrrole-3-carboxamide], the EC50 in series [1] is less than 0.05 µM. The compound also displayed a CC50 at 7 days in series [2] of more than 30 µM.

In the case of `Cc1cc(NC(=O)c2c(C)c(C(=O)C(=O)N[C@@H]3CCC[C@H]3O)n(CCF)c2C)ccc1F` [Example 195, N-(4-fluoro-3-methylphenyl)-1-(2-fluoroethyl)-5-(2-(((1R,2R)-2-hydroxycyclopentyl)amino)-2-oxoacetyl)-2,4-dimethyl-1H-pyrrole-3-carboxamide], the EC50 in series [1] is less than 0.05 µM. In series [2], this compound displayed a CC50 at 7 days of more than 30 µM.

Consider `Cc1cc(NC(=O)c2c(C)c(C(=O)C(=O)NC(C)(C)CO)n(CCF)c2C)ccc1F` [Example 116, N-(4-fluoro-3-methylphenyl)-1-(2-fluoroethyl)-5-(2-((1-hydroxy-2-methylpropan-2-yl)amino)-2-oxoacetyl)-2,4-dimethyl-1H-pyrrole-3-carboxamide], for which the EC50 in series [1] was less than 0.05 µM. Besides, the CC50 at 7 days in series [2] was more than 30 µM.

`Cc1cc(NC(=O)c2c(C)c(C(=O)C(=O)N[C@@H]3CCCNC3=O)n(C)c2C)ccc1F` [Example 673, (R)-N-(4-fluoro-3-methylphenyl)-1,2,4-trimethyl-5-(2-oxo-2-((2-oxopiperidin-3-yl)amino)acetyl)-1H-pyrrole-3-carboxamide]: the EC50 in series [1] is less than 0.05 µM. For the same compound, the CC50 at 7 days in series [2] is more than 30 µM.

For the compound `Cc1cc(NC(=O)c2c(C)c(C(=O)C(=O)N[C@@]3(C)CC[C@@H](O)C3)n(C)c2C)ccc1F` [Example 722, N-(4-fluoro-3-methylphenyl)-5-(2-(((1S,3R)-3-hydroxy-1-methylcyclopentyl)amino)-2-oxoacetyl)-1,2,4-trimethyl-1H-pyrrole-3-carboxamide], in series [1], the EC50 is less than 0.05 µM. In series [2], this compound displayed a CC50 at 7 days of more than 30 µM.

For the compound `Cc1c(C(=O)NC2CCCC2)c2n(c1C(=O)C(=O)NC1(CO)CCC1)CCCC2` [Example 746, N-cyclopentyl-3-(2-((1-(hydroxymethyl)cyclobutyl)amino)-2-oxoacetyl)-2-methyl-5,6,7,8-tetrahydroindolizine-1-carboxamide], the EC50 in series [1] is 0.05 to 0.499 µM. The CC50 at 7 days in series [2] was more than 30 µM.

For the compound `Cc1cc(NC(=O)c2c(C)c(C(=O)C(=O)N[C@@H]3CCC[C@H](O)C3)n(C)c2C)ccc1F` [Example 330, N-(4-fluoro-3-methylphenyl)-5-(2-(((1R,3S)-3-hydroxycyclohexyl)amino)-2-oxoacetyl)-1,2,4-trimethyl-1H-pyrrole-3-carboxamide], in series [1], the concentration for a half-maximal effect (EC50) was less than 0.05 µM. This compound came in with a CC50 at 7 days in series [2] of more than 30 µM.

Turning to `Cc1cc(NC(=O)c2c(C)c(C(=O)C(=O)NC3(CO)CC(F)(F)C3)n3c2CCCC3)cnc1F` [Example 474, 3-(2-((3,3-difluoro-1-(hydroxymethyl)cyclobutyl)amino)-2-oxoacetyl)-N-(6-fluoro-5-methylpyridin-3-yl)-2-methyl-5,6,7,8-tetrahydroindolizine-1-ccarboxamide], the EC50 in series [1] is 0.5 to 1 µM. The compound further returned a CC50 at 7 days in series [2] of more than 30 µM.

On to `Cc1cc(NC(=O)c2cc(C(=O)C(=O)N[C@H](C)C(C)(F)F)n3c2CCCC3)ccc1F` [Example 428, (R)-3-(2-((3,3-difluorobutan-2-yl)amino)-2-oxoacetyl)-N-(4-fluoro-3-methylphenyl)-5,6,7,8-tetrahydroindolizine--1 carboxamide], for which, in series [1], the EC50 lay within 0.05 to 0.499 µM. Besides, the CC50 at 7 days in series [2] is more than 30 µM.

As for `O=C(N[C@H]1COC[C@@H]1O)C(=O)c1c(Cl)c(C(=O)Nc2ccc(F)c(F)c2)c2n1CCC2` [Example 570, 6-chloro-N-(3,4-difluorophenyl)-5-(22-(((3S,4R)-4-hydroxytetrahydrofuran-3-yl)amino)-2-oxoacetyl)-2,3-dihydro-1H-pyrrolizine-7-carboxamide], in series [1], the EC50 is less than 0.05 µM. This compound also displayed a CC50 at 7 days in series [2] of more than 30 µM.

For the compound `Cc1cnc(NC(=O)c2c(C)c(C(=O)C(=O)NC(C)(C)CO)n3c2CCCC3)s1` [Example 758, 3-(2-((1-hydroxy-2-methylpropan-2-yl)amino)-2-oxoacetyl)-2-methyl-N-(5-methylthiazol-2-yl)-5,6,7,8-tetrahydroindazoline-1-carboxamide], the EC50 in series [1] is 0.05 to 0.499 µM. The compound also displayed a CC50 at 7 days in series [2] of more than 30 µM.

As for `Cc1cc(NC(=O)c2c(C)c(C(=O)C(=O)Nc3cccnc3)n(C)c2C)ccc1F` [Example 204, N-(4-fluoro-3-methylphenyl)-1,2,4-trimethyl-5-(2-oxo-2-(pyridin-3-ylamino)acetyl)-1H-pyrrole-3-carboxamide], the EC50 in series [1] is less than 0.05 µM. This compound also came in with a CC50 at 7 days in series [2] of more than 30 µM.

On to `CC(C)(CO)CNC(=O)C(=O)c1c(Cl)c(C(=O)Nc2ccc(F)c(F)c2)c2n1CCC2` [Example 559, 6-chloro-N-(3,4-difluorophenyl)-5-(2-((3-hydroxy-2,2-dimethylpropyl)amino)-2-oxoacetyl)-2,3-dihydro-1H-pyrrolizine-7-carboxamide], for which the EC50 in series [1] is 0.05 to 0.499 µM. Further, in series [2], the CC50 at 7 days was more than 30 µM.

For `Cc1cc(NC(=O)c2c(Cl)c(C(=O)C(=O)N[C@@H]3CCC[C@@H]3O)n(C)c2C)ccc1F` [Example 367, 4-chloro-N-(4-fluoro-3-methylphenyl)-5-(2-(((1R,2S)-2-hydroxycyclopentyl)aminO)-2-oxoacetyl)-1,2-dimethyl-1H-pyrrole-3-carboxamide], in series [1], the EC50 was less than 0.05 µM. The CC50 at 7 days in series [2] lay within 5 to 30 µM.
